{
  "source": "patent US12653799B2",
  "about": "“Compositions and methods for treating Alzheimer's disease” (ELEANORE BENNETT CHARITABLE TRUST #2, priority 2021, dated 2026)",
  "key": {"APP/PS-1 transgenic mice": {"test_system": "APP/PS-1 transgenic mice", "assay": "Morris water maze in APP/PS-1 transgenic mice, PS48 via diet", "format": "in vivo, mouse", "conditions": "for time spent over the platform area, acquisition probe: TG", "experimental": "Next, a series of experiments was performed using a Morris water maze. WT mice fed standard diet (SD) reached the hidden platform in a shorter time compared to TG-SD mice. […] The PS48 effect was more pronounced within the standard diet condition. *p<0.05, **p<0.01, ANOVA; ^p<0.05, t-test. WT mice fed standard diet (SD) reached the hidden platform zone in a shorter distance compared to TG-SD mice. […] The PS48 effect was more pronounced within the standard diet condition. Memory acquisition for the location of the escape platform location was tested in 12-month-old APP/PS1 transgenic and littermate mice. The removed escape platform was located in the northeast quadrant of the tank. […] The 10 cm platform is indicated in the figure by the shaded circle in the upper right quadrant. The following metrics were quantified: (1) time spent swimming over the target area, (2) latency to attain the target area, (3) path length to platform, and (4) number of crossings over the area. […] Transgenic animals fed high fat diet (HFD) performed less well than those on standard diet. […] Lower latency values indicate better recall for the target location. […] Animals were retrained with the platform in the SE quadrant and probe phase conducted as before. FIGS. 13E-13H show path length taken, in cm, to first reach hidden platform. […] Similar probe results were obtained in the subsequent reversal trial. […] (±1 SEM, n=16 data points per group, *p<0.05, **p<0.01, ++p<0.001). […] The data has similar import to time spent over platform area above."}, "C57BL/6 mice [1]": {"test_system": "C57BL/6 mice", "assay": "Safety of intravenous PS48 over 2 weeks", "format": "in vivo, mouse", "experimental": "(§1) Finally, a series of in vivo experiments was performed to assess safety of treatment with PS48. […] Similarly, when PS48 was given by oral gavage over 2 weeks, there were no signs of toxicity by gross observation, organ specific necropsy, or weight.\nFor intravenous PS48, adult male C57BL/6 mice (Charles River, n=6 per group) were fed ad libitum and dosed with PS48 or vehicle in an escalating schedule from 3-20 mg/kg IV daily; 3-10 mg/kg days 1-6, and 20 mg/kg days 7-13. Tail vein blood sugars were obtained 30, 60, and 120 minutes after every third dose.\nLiver transaminases ALT and AST, as well as muscle creatine kinase (CK), were also measured to assess possible liver toxicity and possible general tissue toxicity, respectively. A change in ALT, albeit statistically significant, was very small."}, "SH-SY5Y cells": {"test_system": "SH-SY5Y cells", "assay": "Cell viability, MTT assay, Aβ42-expressing SH-SY5Y cells"}, "C57BL/6 mice [2]": {"test_system": "C57BL/6 mice", "assay": "Safety of PS48 by oral gavage for 14 days", "format": "in vivo, mouse", "conditions": "oral gavage 1 or 50 mg/kg per day", "experimental": "as §1\nAdult C57BL/6 mice (n=6 per group) were administered PS48 for 14 days. A low dose group received 1 mg/kg per day, while a high dose group received 50 mg/kg per day. A negative control group received corn oil. […] Body and organ specific weights were unaffected at necropsy. Fasting serum glucose at trial end was unchanged (˜150 mg/dl)."}, "[3]": {"test_system": "Akt Ser473 and mTOR Ser2448 phosphorylation in rat primary cortical neurons", "assay": "Over-activation test in insulin-stimulated primary cortical neurons", "conditions": "PS48 0.01 to 100 μM for 2 hrs or 24 hrs; 20 nM insulin"}, "Akt-1": {"biological_target": "T1, Akt-1 (Homo sapiens, UniProt P31749)", "T1 construct": "purchased Amsbio", "T1 sequence (P31749 whole entry)": "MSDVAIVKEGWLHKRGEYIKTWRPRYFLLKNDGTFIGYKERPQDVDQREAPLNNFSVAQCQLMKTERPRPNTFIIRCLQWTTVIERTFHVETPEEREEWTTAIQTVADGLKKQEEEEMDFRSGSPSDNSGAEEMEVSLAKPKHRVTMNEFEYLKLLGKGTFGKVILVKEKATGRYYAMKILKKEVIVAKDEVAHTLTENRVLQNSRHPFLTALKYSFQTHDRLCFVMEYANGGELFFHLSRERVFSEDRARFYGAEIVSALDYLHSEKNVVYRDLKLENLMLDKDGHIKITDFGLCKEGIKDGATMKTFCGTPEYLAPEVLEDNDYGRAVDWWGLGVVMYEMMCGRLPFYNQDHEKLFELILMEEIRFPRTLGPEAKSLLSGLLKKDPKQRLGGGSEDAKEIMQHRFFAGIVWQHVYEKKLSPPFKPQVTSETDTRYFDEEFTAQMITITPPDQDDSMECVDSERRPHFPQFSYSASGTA", "assay": "Fluorescence polarization, FAM-Aβ42 binding to Akt-1 in solution", "conditions": "PS48 10, 20, and 100 μM; results not shown"}, "mTOR": {"test_system": "mTOR", "assay": "Downstream mTOR phosphorylation", "format": "cell-based", "conditions": "PS48 1 or 10 μM, 2-4 hrs before doxycycline"}},
  "data": [
    {"molecule": "O=C(O)/C=C(/CCc1ccc(Cl)cc1)c1ccccc1", "note": "[PS48, (Z)-5-(4-chlorophenyl)-3-phenylpent-2-enoic acid]", "values": [
      {"measurement": "latency to reach the hidden platform, place learning and reversal tasks", "setting": "APP/PS-1 transgenic mice; PS48 orally through diet, SD and HFD, more pronounced on standard diet", "result": "tended to reduce latency"},
      {"measurement": "time spent over the platform area, acquisition probe", "setting": "APP/PS-1 transgenic mice; HFD supplemented with PS48, p<0.01 vs Tg HFD w/V", "result": "most significant improvement"},
      {"measurement": "time spent over the platform area, acquisition probe", "setting": "APP/PS-1 transgenic mice; standard diet with PS48, p<0.10 vs vehicle fed", "result": "improved in this measure"},
      {"measurement": "path length, acquisition and reversal data combined", "setting": "APP/PS-1 transgenic mice; Tg HFD group", "result": "significantly benefited"},
      {"measurement": "latency to platform, acquisition probe", "setting": "APP/PS-1 transgenic mice; Tg mice on standard or high fat diet vs vehicle controls", "result": "Results favored"},
      {"measurement": "path length to first reach hidden platform, probe", "setting": "APP/PS-1 transgenic mice; Tg on standard or HFD diet", "result": "trended improvements in the direction of WT"},
      {"measurement": "crossing numbers over removed platform location", "setting": "APP/PS-1 transgenic mice; both probe trials combined, p<0.05 vs vehicle", "result": "performed significantly better than vehicle"},
      {"measurement": "distance to zone to reach the hidden platform", "setting": "APP/PS-1 transgenic mice; dietary PS48, SD and HFD, more pronounced on standard diet", "result": "tended to reduce distance to zone"},
      {"measurement": "behavioral changes", "setting": "C57BL/6 mice [1]; 3-20 mg/kg IV daily, 2-week trial", "result": "No behavioral changes"},
      {"measurement": "change in muscle creatine kinase (CK)", "setting": "C57BL/6 mice [1]; IV daily for 14 days", "result": "no significant change"},
      {"measurement": "change in ALT", "setting": "C57BL/6 mice [1]; IV daily for 14 days, statistically significant", "result": "very small"},
      {"measurement": "mean body weight or mean blood sugars", "setting": "C57BL/6 mice [1]; IV, 3-20 mg/kg daily", "result": "no significant change"},
      {"measurement": "gross necropsy", "setting": "C57BL/6 mice [1]; IV, after 14 days", "result": "no abnormalities"},
      {"measurement": "cell viability, comparison with PPAR agonist (FIG. 2B)", "setting": "SH-SY5Y cells; PS48 10 μM, pioglitazone 5 μM", "result": "compared favorably"},
      {"measurement": "cell viability (MTT) of amyloid-bearing cells", "setting": "SH-SY5Y cells; pretreatment before doxycycline, PS48 10 μM or insulin 100 nM, harvested at 48 hrs", "result": "reverted cells to basal condition or better"},
      {"measurement": "behavioral changes", "setting": "C57BL/6 mice [2]", "result": "No overt behavioral changes"},
      {"measurement": "body and organ specific weights at necropsy", "setting": "C57BL/6 mice [2]", "result": "unaffected"},
      {"measurement": "tolerability", "setting": "C57BL/6 mice [2]", "result": "well tolerated"},
      {"measurement": "fasting serum glucose at trial end", "setting": "C57BL/6 mice [2]; unchanged", "result": "~150", "unit": "mg/dL"},
      {"measurement": "Akt Ser473 and mTOR Ser2448 phosphorylation", "setting": "[3]", "result": "did not over-activate Akt Ser473 or affect mTOR Ser2448 phosphorylation"},
      {"measurement": "effect of PS48 additions on polarization signal", "setting": "Akt-1", "result": "did not affect either polarization signal"},
      {"measurement": "downstream mTOR substrate phosphorylation", "setting": "mTOR", "result": "unchanged"}
    ]}
  ]
}
